From patent US6169181A, “Compounds useful to treat retroviral infections” (Pharmacia & Upjohn Company, priority 1998, dated 2001)
Several values for one entry are separate records, joined by “and”; a condition that tells them apart may be missing. Identical values can stand only once. Like-named read-outs stand apart in the source and are kept apart here.

What was measured:
HIV-1 protease [1] = target: T1, HIV-1 protease (Human immunodeficiency virus type 1 group M subtype B, UniProt P04585); assay: biochemical; conditions: read-out: HIV Protease FITC Assay Ki
Description: The HIV protease screening assay is based on fluorescently labeled substrate which can be resolved from nonlabeled cleavage product using special beads coated with streptavidin. The substrate is biotinylated at the amino terminal arginine and fluorescently labeled with fluorescein isothiocynate (FITC) at the carboxyl terminal lysine. […] Substrate ([…] of 0.2 μM), sample (10 μl of desired concentraion), and enzyme (10 μl of 0.1 μM) are added to a 96 well pandex plate. The assay is run in 0.1 M sodium acetate buffer at pH 5.5 in the presence of 1.0 M sodium chloride and 0.05% NP-40 with incubated in the dark for one hour at room temperature. Strepavidin coated polystyrene beads {40 μl of 0.1% (w/v)} are added and the plate is incubated in the dark for an additional half hour. The labeled cleavage product is separated from the unreacted substrate via filtration and is read on the Idexx screen machine. The data are analyzed by appropriate computer algorithms to ascertain percent inhibition values.
Determination of Ki values utilizes the same materials and equipment employed for percent inhibition studies. Two-fold serial dilutions are made for a given inhibitor from 2, 3 or 4 starting concentrations with a total of 24, 36 or 48 individual inhibitor concentrations. These dilutions are performed utilizing the BioMek robotics system. The assay consists of 10 μL of 40 nM HIV-1 protease, 10 μL of the various inhibitor concentrations, and 20 μL of 200 μM substrate (40 μL total). The reaction is allowed to proceed for 90 min at room temperature, terminated with 40 μL of avidin beads and processed (supra vide). An inhibitor with a known K; is run in parallel to verify the validity of the assay. The data is processed utilizing a computer program employing a nonlinear least square analysis of the data to generate the Ki values.

HIV-1 protease [2] = target: T1, HIV-1 protease; assay: biochemical; conditions: for inhibition at 0.123 µM / inhibition at 0.37 µM / inhibition at 1.1 µM / inhibition at 3.3 µM / inhibition at 10 µM / inhibition at 30 µM / PROTEASE % INHIB.: Table I
Description: The HIV protease screening assay is based on fluorescently labeled substrate which can be resolved from nonlabeled cleavage product using special beads coated with streptavidin. The substrate is biotinylated at the amino terminal arginine and fluorescently labeled with fluorescein isothiocynate (FITC) at the carboxyl terminal lysine. This assay has been employed to detect novel, nonpeptidic inhibitors of HIV-1 protease. Substrate (20 μM of 0.2 μM), sample (10 μl of desired concentraion), and enzyme (10 μl of 0.1 μM) are added to a 96 well pandex plate. The assay is run in 0.1 M sodium acetate buffer at pH 5.5 in the presence of 1.0 M sodium chloride and 0.05% NP-40 with incubated in the dark for one hour at room temperature. Strepavidin coated polystyrene beads {40 μl of 0.1% (w/v)} are added and the plate is incubated in the dark for an additional half hour. The labeled cleavage product is separated from the unreacted substrate via filtration and is read on the Idexx screen machine. The data are analyzed by appropriate computer algorithms to ascertain percent inhibition values.

[3] = Dose 0.123 μM, read-out: Protease % Inhib
[4] = Dose 0.370 μM, read-out: Protease % Inhib
[5] = Dose 1.100 μM, read-out: Protease % Inhib
[6] = Dose 3.300 μM, read-out: Protease % Inhib
[7] = Dose 10.000 μM, read-out: Protease % Inhib
[8] = Dose 30.000 μM, read-out: Protease % Inhib

| Ki (HIV-1 protease [1]; Table I) | Compound | inhibition at 0.123 µM (HIV-1 protease [2]; [3]) | inhibition at 0.37 µM (HIV-1 protease [2]; [4]) | inhibition at 1.1 µM (HIV-1 protease [2]; [5]) | inhibition at 3.3 µM (HIV-1 protease [2]; [6]) | inhibition at 10 µM (HIV-1 protease [2]; [7]) | also measured |
| --- | --- | --- | --- | --- | --- | --- | --- |
| 8.3 nM | Cn1cnc(S(=O)(=O)Nc2cccc(C(C3=C(O)CC(CCc4ccc(F)cc4)(CCc4ccc(F)cc4)OC3=O)C(C)(C)C)c2)c1 (centres unmarked) [Example 256, N-[3-{1-(4-Hydroxy-5,6-dihydro-2-oxo-6,6-bis(2-(4-fluorophenyl)ethyl)-2H-pyran-3-yl)-2,2-dimethylpropyl}phenyl]-1-methyl-1H-imidazole-4-sulfonamide] | – | – | – | – | – | – |
| 1.2 nM | CCC(C1=C(O)CC(CCC2CC2)(CCC2CC2)OC1=O)c1cccc(NS(=O)(=O)c2ccc(C#N)cn2)c1 (centres unmarked) [Example 247, N-[3-(1-[6,6-Bis-(2-cyclopropyl-ethyl)-5,6-dihydro-4-hydroxy-2-oxo-2H-pyran-3-yl]propyl)phenyl]-5-cyano-2-pyridinesulfonamide] | – | – | – | – | – | – |
| 4.7 nM | CCC(C1=C(O)CC(CC)(c2cccc(NS(=O)(=O)c3cn(C)cn3)c2)OC1=O)c1cccc(NS(=O)(=O)c2cn(C)cn2)c1 (centres unmarked) [Example 248, N-(3-[1-(6-Ethyl-5,6-dihydro-4-hydroxy-6-[3-([(1-methyl-1H-imidazol-4-yl)sulfonyl]amino)phenyl]-2-2H-pyran-3-yl)propyl]phenyl)-1-methyl-1H-imidazole-4-sulfonamide] | – | – | – | – | – | – |
| 1.7 nM | CCC(C1=C(O)CC(CCC2CC2)(CCC2CC2)OC1=O)c1cccc(NS(=O)(=O)c2cn(C)cn2)c1 (centres unmarked) [Example 246, N-[3-(1-[6,6-Bis-(2-cyclopropyl-ethyl)-5,6-dihydro-4-hydroxy-2-oxo-2H-pyran-3-yl]propyl)phenyl]-1-methyl-1H-imidazole-4-sulfonamide] | – | – | – | – | – | – |
| 1.6 nM | CCCC1(CCc2ccc(F)cc2)CC(O)=C(C(CC)c2cccc(NS(=O)(=O)c3ccc(C#N)cn3)c2)C(=O)O1 (centres unmarked) [Example 255, N-[3-{1-(4-Hydroxy-5,6-dihydro-2-oxo-6-(2-(4-fluorophenyl)ethyl)-6-propyl-2H-pyran-3-yl)propyl}phenyl]-5-cyanopyridine-2-sulfonamide] | – | – | – | – | – | – |
| – | Cn1cnc(S(=O)(=O)Nc2cccc(C(c3c(O)cc(C(CC4CC4)CC4CC4)oc3=O)C3CC3)c2)c1 (centres unmarked) [98 Second Compound] | – | – | – | – | – | Ki (HIV-1 protease [1]): 0.84 nM and 0.8 nM |
| 2.2 nM | CCC(C1=C(O)CC(CCc2ccc(F)cc2)(CCc2ccc(F)cc2)OC1=O)c1cccc(NS(=O)(=O)c2ccc(C#N)cn2)c1 (centres unmarked) [Example 259, N-[3-{1-(4-Hydroxy-5,6-dihydro-2-oxo-6,6-bis(2-(4-fluorophenyl)ethyl)-2H-pyran-3-yl)propyl}phenyl]-5-cyanopyridine-2-sulfonamide] | – | – | – | – | – | – |
| – | CCC(C1=C(O)CC(CC)(c2cccc(NS(=O)(=O)c3ccc(C#N)cn3)c2)OC1=O)c1cccc(NS(=O)(=O)c2ccc(C#N)cn2)c1 (centres unmarked) [Example 249, 5-Cyano-N-(3-[1-(6-[3-([(5-cyano-2-pyridinyl)sulfonyl]amino)phenyl]-6-ethyl-5,6-dihydro-4-hydroxy-2-oxo-2H-pyran-3-yl)propyl]phenyl)-2-pyridinesulfonamide] | – | – | – | – | – | Ki (HIV-1 protease [1]): 0.75 nM |
| – | Cn1cnc(S(=O)(=O)Nc2cccc(C(c3c(O)cc(C(CC4CC4)CC4CC4)oc3=O)C3CC3)c2)c1 (centres unmarked) [98 First Compound] | – | – | – | – | – | Ki (HIV-1 protease [1]): 0.74 nM and 0.8 nM |
| – | CCC(CC1CCOCC1)c1cc(O)c(C(c2cccc(NS(=O)(=O)c3cn(C)cn3)c2)C2CC2)c(=O)o1 (centres unmarked) [Example 135, N-(3-{Cyclopropyl-[6-(1-(tetrahydropyran-4-ylmethyl)-propyl)-4-hydroxy-2-oxo-2H-pyran-3-yl]-methyl}-phenyl)-1-methyl-1H-imidazole-4-sulfonamide] | 33.2% | 84.5% | 99.1% | 96.9% | 101% | inhibition at 30.9 µM (HIV-1 protease [2]; read-out: Protease % Inhib): 102% |
| – | CCC(CCN=[N+]=[N-])c1cc(O)c(C(c2cccc(NS(=O)(=O)c3cn(C)cn3)c2)C2CC2)c(=O)o1 (centres unmarked) [Example 109, N-(3-{[6-(3-Azido-1-ethyl-propyl)-4-hydroxy-2-oxo-2H-pyran-3-yl]-cyclopropyl-methyl}-phenyl)-1-methyl-1H-imidazole-4-sulfonamide] | 105% | 99.3% | 104% | 101% | 109% | inhibition at 30 µM (HIV-1 protease [2]; [8]): 109% |
| – | CCCC1(CCc2ccc(F)cc2)CC(O)=C(C(CC)c2cccc(NS(=O)(=O)c3cn(C)cn3)c2)C(=O)O1 (centres unmarked) [Example 254, N-[3-{1-(4-Hydroxy-5,6-dihydro-2-oxo-6-(2-(4-fluorophenyl)ethyl)-6-propyl-2H-pyran-3-yl)propyl}phenyl]-1-methyl-1H-imidazole-4-sulfonamide] | – | – | – | – | – | Ki (HIV-1 protease [1]): 3 nM |
| – | CC[C@H](Cc1ccccc1)c1cc(O)c(C(c2cccc(NS(=O)(=O)c3ccc(C#N)cc3)c2)C2CC2)c(=O)o1 (single isomer, unassigned) [Example 149, N-(3-(R or S)-{Cyclopropyl-[6-(1-(R)-ethylphenethyl)-4-hydroxy-2-oxo-2H-pyran-3-yl]-methyl}-phenyl)-4-cyanobenzenesulfonamide] | – | – | – | – | – | PROTEASE % INHIB. (HIV-1 protease [2]; Dose 0.123 μM): 80.51%; PROTEASE % INHIB. (HIV-1 protease [2]; Dose 0.370 μM): 87.52%; PROTEASE % INHIB. (HIV-1 protease [2]; Dose 1.100 μM): 96.32%; PROTEASE % INHIB. (HIV-1 protease [2]; Dose 3.300 μM): 92.86%; PROTEASE % INHIB. (HIV-1 protease [2]; Dose 10.000 μM): 97.12%; PROTEASE % INHIB. (HIV-1 protease [2]; Dose 30.000 μM): 95.99% |
| – | CCCCCC1(CCCCC)CC(O)=C(C(CC)c2cccc(NS(=O)(=O)c3ccc(C#N)cc3)c2)C(=O)O1 (centres unmarked) [Example 64, 4-Cyano-N-[3-[1-(4-Hydroxy-2-oxo-6,6-dipentyl-5,6-dihydro-2H-pyran-3-yl)-propyl]-phenyl]-benzenesulfonamide] | 27.9% | 50.8% | 75.6% | 80.9% | 82% | inhibition at 30 µM (HIV-1 protease [2]; [8]): 84.4% |
| – | CCCC1(CCc2ccc(F)cc2)CC(O)=C(C(c2cccc(NS(=O)(=O)c3ccc(C#N)cn3)c2)C(C)(C)C)C(=O)O1 (centres unmarked) [Example 253, N-[3-{1-(4-Hydroxy-5,6-dihydro-2-oxo-6-(2-(4-fluorophenyl)ethyl)-6-propyl-2H-pyran-3-yl)-2,2-dimethylpropyl}phenyl]-5-cyanopyridine-2-sulfonamide] | 94% | 96.8% | 97.6% | 95.9% | 97% | inhibition at 30 µM (HIV-1 protease [2]; [8]): 98.5% |
| – | O=c1oc(C(CC2CC2)CC2CC2)cc(O)c1C(c1cccc(NS(=O)(=O)c2cccc3cccnc23)c1)C1CC1 (centres unmarked) [Example 96, N-(3-{Cyclopropyl-[6-(2-cyclopropyl-1-cyclopropylmethyl-ethyl)-4-hydroxy-2-oxo-2H-pyran-3-yl]-methyl}-phenyl)-8-quinolinesulfonamide] | 94.2% | 119% | 122% | 111% | 111% | inhibition at 30 µM (HIV-1 protease [2]; [8]): 109% |
| – | COCCOCCCc1cc(O)c(C(c2cccc(NS(=O)(=O)c3cn(C)cn3)c2)C2CC2)c(=O)o1 (centres unmarked) [Example 104, N-(3-{Cyclopropyl-[4-hydroxy-6-(3-{2-methoxy-ethoxy}-propyl)-2-oxo-2H-pyran-3-yl]-methyl}-phenyl)-1-methyl-1H-imidazole-4-sulfonamide] | < 10% | 61.7% | 81.8% | 93.3% | 96.4% | inhibition at 30 µM (HIV-1 protease [2]; [8]): 109% |

| Compound | Ki (HIV-1 protease [1]; Table I) | inhibition at 0.123 µM (HIV-1 protease [2]; [3]) | inhibition at 0.37 µM (HIV-1 protease [2]; [4]) | inhibition at 1.1 µM (HIV-1 protease [2]; [5]) | inhibition at 3.3 µM (HIV-1 protease [2]; [6]) | inhibition at 10 µM (HIV-1 protease [2]; [7]) | also measured |
| --- | --- | --- | --- | --- | --- | --- | --- |
| CCCC1(CCC)CC(O)=C(C(c2cccc(NS(=O)(=O)c3cn(C)cn3)c2)C(C)(C)C)C(=O)O1 (centres unmarked) [Example 261, N-[3-{1-(4-Hydroxy-5,6-dihydro-2-oxo-6,6-dipropyl-2H-pyran-3-yl)-2,2-dimethylpropyl}phenyl]-1-methyl-1H-imidazole-4-sulfonamide] | 0.87 nM | – | – | – | – | – | – |
